Data reported in patent US6949354B2, “Methods for screening compounds active on neurons” (Trophos, priority 1999, dated 2005).

Tests used:
motor neurons = assay: Induction of motor neuron cell death by glutamate toxicity (domoic acid); type: cell-based, rat; conditions: domoic acid at 10^-5 M, after 24 hours
Procedure: Domoic acid at 10^−5M leads to loss of more than 50% of motor neurons after 24 hours (see is example), with even more dramatic effects after longer incubations.
Rat motor neurons were isolated and purified as described in example 1 and cultured for 3 days in Neurobasal medium without neurotrophic factors (i.e. trophic factor withdrawal) in 4-well plates in the presence or absence of the test molecule. The neurotrophic factor BDNF is used as a positive control for all experiments. […] Motor neurons were grown for 3 days in vitro, then domoic acid at various concentrations was added and the number of surviving motor neurons was counted after 26 hours.

Rat motor neurons = assay: Motor neuron survival on trophic factor withdrawal; type: cell-based; conditions: cultured 3 days in Neurobasal medium without neurotrophic factors, 4-well plates; FIG. 1
Procedure: Spinal cords are dissected from day E14.5 sprague Dawley rat embryos (Camu et al., (1993) In: “Immunoselection Strategies for Neural Cell Culture”, Neuroprotocols: A companion to Methods in Neurosciences 2, 191-199). The dorsal part of the spinal cord is cut away, and the meninges removed. Each cord is cut into pieces using a scalpel and placed into 1 ml modified F10 medium (Ca2+, Mg2+-free, no glutamine or phenol red), with 0.025% trypsin, at 37° C. for 10 minutes. The fragments are transferred to 1 ml L15 containing 0.4% BSA and 0.1 mg/ml Dnase, and triturated using a blue (1 ml) tip. Cells are then spun through a BSA (4% w/v) cushion for 5 minutes at 480 g. The small cells are removed using a metrizamide (Serva) density gradient: 6.5% (w/v) metrizamide is placed under the cell suspension and centrifuged for 15 minutes at 860 g. The large motor neurons stay at the interface between the medium and the metrizamide, while the small cells (including non-neuronal cells) are pelleted. […]
Rat motor neurons were isolated and purified as described in example 1 and cultured for 3 days in Neurobasal medium without neurotrophic factors (i.e. trophic factor withdrawal) in 4-well plates in the presence or absence of the test molecule. […] Motor neurons were grown for 3 days in vitro, then domoic acid at various concentrations was added and the number of surviving motor neurons was counted after 26 hours. […]

isolated neurons = assay: Low-density isolated neuron cultures (384-well plate) under growth factor privation, individual cell count; type: cell-based; conditions: growth factor privation to induce apoptosis, exclusion threshold below 300 μm^2, untreated well 18 neurons, FIG. 3A
From the text: FIG. 3 represents two 9 mm^2-wells of a microtitration plate (384 wells) containing low-density cultures of isolated neurons according to this invention. The cultures were subjected to growth factor privation to induce apoptosis, and treated or not with BDNF. […] The exclusion threshold is below 300 μm^2.

Row | Molecule | survival of motor neurons on trophic factor withdrawal (Rat motor neurons) | also measured
1 | C/C(=C/C=C/[C@@H](C)C(=O)O)[C@H]1CN[C@H](C(=O)O)[C@H]1CC(=O)O [Domoic acid] |  | loss of motor neurons (motor neurons): more than 50%
2 | CCCC(CCC)C(=O)[O-].[Na+] [sodium valproate] | enhances survival of motor neurons | 
3 | (4-carboxyphenyloxyamino) butanoic acid | no effect on motor neuron survival | 
4 | BDNF: neurotrophic factor used as a positive control (protein, UniProt P23560 19-247, looked up) Neurotrophic factor BDNF …: APMKEANIRGQGGLAYPGVRTHGTLESVNGPKAGSRGLTSLADTFEHVIEELLDEDQKVRPNEENNKDADLYTSRVMLSSQVPLEPPLLFLLEEYKNYLDAANMSMRVRRHSDPARRGELSVCDSISEWVTAADKKTAVDMSGGTVTVLEKVPVSKGQLKQYFYETKCNPMGYTKEGCRGIDKRHWNSQCRTTQSYVRALTMDSKKRIGWRFIRIDTSCVCTLTIKRGR |  | neurons present per 9 mm^2 well (isolated neurons): 73 neurons
